Results taken from paper PMC8949944, “The Effect of Microbubble-Assisted Ultrasound on Molecular Permeability across Cell Barriers” (Pharmaceutics, 2022).
Several values for one entry are separate records, joined by “and”; a condition that tells them apart may be missing. Identical values can stand only once. Entries after “also recorded” stand apart in the source; their conditions may differ.

What was measured:
[1] = cited from earlier work; for Hydrophilic/Lipophilic: classification in Table 1
[2] = test system: epithelial (MDCK II) cell barrier; experiment: Permeability of model drugs across epithelial (MDCK II) barrier on transwell after USMB or sham treatment; type: in vitro ADME, canine; details: for total permeated amount: 0 MPa (sham, absence of USMB), 120 min, apical-to-basolateral; for effect of USMB on permeability across epithelial barrier: increasing ultrasound pressures 0.3-0.7 MPa vs sham
Experimental: (§1) For the permeability studies, epithelial cells were cultured as tight monolayers on transwell membranes. […] Prior to cell seeding, the transwell membranes were equilibrated for 10 min with culture medium at room temperature. […] The permeability of various test compounds across epithelial monolayers cultured on transwell membranes was studied in the apical-to-basolateral direction (Figure 1A). […] Ultrasound experiments were performed using an unfocused, single-element transducer with 20 mm diameter (PA420, Precision Acoustics, Dorchester, UK). […] The resulting signal was then amplified (AG1012, T&C Power Conversion Inc., New York, NY, USA) before it was sent to the ultrasound transducer. A dedicated sonication tank compatible with transwell inserts was used for the USMB experiments (Figure 1B). The ultrasound transducer was positioned at the bottom of the bath and about 250 mL of PBS at 37 °C was added. Subsequently, the transwell insert was immersed in the bath with the transwell membrane covered with cells facing down (Figure 1B) at a fixed axial distance (80 mm) from the ultrasound transducer. Transwell inserts were randomly assigned to USMB-treated or sham-treated sample groups. Following immersion of USMB-treated samples in the sonication bath, 500 μL of freshly mixed SonoVue^TM microbubbles (Bracco, Milan, Italy) was injected near the cells using a curved-tip 19G needle (Figure 1C). […] Microbubbles were allowed to float for 1 min so that direct contact with the cells was assured. Subsequently, ultrasound was applied for 1 min with acoustic peak negative pressure (Pneg) ranging between 0.3 and 0.7 MPa. […] Sham-treated samples were immersed in the PBS bath for 2 min and served as negative controls (0 MPa). […] Immediately after USMB treatment, transwell inserts were removed from the sonication bath (containing PBS) and were placed in a new six-well plate. […] The initial concentration of test compounds on the apical side was 1 μCi/mL for propranolol and mannitol and 200 μM for 6-carboxyfluorescein and fluorescent dextrans. An overview of the relevant physicochemical characteristics of the test compounds used in the permeability experiments is given in Table 1. […] The volume of removed sample was replaced with fresh HBSS. During the experiment, cells were kept at 37 °C and shaking at 170 rounds per minute. In the experiments where fluorescent compounds were used, samples were protected from light at all times. The samples containing radioactively-labelled compounds were equilibrated overnight in liquid scintillation cocktail for radiometric detection (Ultima Gold, 6013321, Perkin Elmer) at room temperature. Detection of radioactivity counts was determined by a microplate counter for radiometric counting (MicroBeta, 2450, Perkin Elmer). Intensity of fluorescence signals was determined by a spectrofluorophotometer (FP 8300, Jasco Benelux BV, Utrecht, The Netherlands). 6-carboxyfluorescein was excited at 492 nm and emission was detected at 517/5 nm (center wavelength/bandwidth) and TRITC-dextrans were excited at 550 nm and detected at 575/5 nm. Background radioactivity and fluorescence signal from HBSS were subtracted from the measurements. […] Q is the flux of the test compound (μg/s), C0 is the initial concentration of the test compound at the apical side (μg/mL), and A is the surface area of the transwell membrane (cm^2).

[3] = as above; type: in vitro ADME, canine; details: dog, MDCK; 0 MPa (sham); apical-to-basolateral; read-out: apparent permeability coefficient (Papp)
Experimental: as §1

[4] = test system: endothelial (HUVEC) barrier; experiment: Permeability of model drugs across endothelial (HUVEC) barrier on transwell; type: in vitro ADME, Human
Excerpt: Supplementary Information: The Effect of Microbubble-As-sisted Ultrasound on Molecular Permeability across Cell Barri- […]
Charis Rousou, Josanne de Maar, Boning Qiu, Kim van der Wurff-Jacobs, Marika Ruponen, Arto Urtti, Sabrina Oliveira, Chrit Moonen, Gert Storm, Enrico Mastrobattista and Roel Deckers SI-1. Materials and methods
SI-1.1. Culture of endothelial cells
Human umbilical vein endothelial cells (HUVEC) were acquired from Lonza (Verviers, Belgium) and cultured in Endothelial Basal Medium (EBM-2) supplemented with growth factors (Growth Medium 2 SupplementMix®, PromoCell, Heidelberg Germany) and 0.1% antibiotics (gentamicin/amphotericin B, Gibco, New York, USA). Cells were sub-cultured 1-2 times per week in dilution ratios between 1:3-1:6 and were used up to passage number 7.
SI-1.2. Differentiation of endothelial cells […]
The effect of USMB treatment on the viability of epithelial cells was examined using the AlamarBlue assay. […] Next, the solution from the apical side was removed and fluorescence intensity was analyzed with a spectrofluorophotometer (FP 8300, Jasco) at excitation and emission wavelengths of 571 nm and 584/5 nm (center wavelength/bandwidth), respectively. Cell viability of each group was calculated as percentage fluorescent signal relative to that of sham treated cells. […]

Row | total permeated amount [2] | Papp A→B at 120 min, 200 µM [3] [×10⁻⁶ cm/s] | permeated amount ([4]; control samples (0 MPa), 120 minutes, endothelial barrier) [%] | Papp endothelial (HUVEC) barrier relative to epithelial (MDCK II) barrier ([4]; sham treatment, absence of USMB) | Structure (SMILES) | Hydrophilic/Lipophilic [1] | LogD ([1]; octanol/water partition coefficient at pH 7.4) | effect of USMB on permeability across epithelial barrier [2]
1 | 4.06% and 4.1 ± 0.5% | 0.06 | 5.14 | 22 times and ~ 20 times | O=C(O)c1ccc(C(=O)O)c(-c2c3ccc(=O)cc-3oc3cc(O)ccc23)c1 [6-carboxyfluorescein] | Hydrophilic | −3.2 | did not have a significant effect; also recorded: lack of measurable effect
2 | 5.6 ± 1.4% |  |  |  | OC[C@@H](O)[C@@H](O)[C@H](O)[C@H](O)CO [Mannitol, mannitol] | Hydrophilic |  | did not have a significant effect; also recorded: lack of measurable effect
3 | 29.1 ± 2.2% |  |  |  | CC(C)NCC(O)COc1cccc2ccccc12 (stereo not shown) [Propranolol, propranolol] | Lipophilic |  | did not have a significant effect
